Laboratory results taken from patent US20250352603A1, “VALERIAN COMPOSITION FOR SLEEP MANAGEMENT” (OMNIACTIVE HEALTH TECHNOLOGIES LIMITED, priority 2022, published 2025).

Columns and labels:
Assay type in all cases: in vivo, mice
[1] = test system: serum serotonin, dopamine, melatonin; test: Serum melatonin, serotonin and dopamine by ELISA kits; conditions: CM: caffeine then 2 mg/kg i.p.
Procedure: (§1) Working solutions of caffeine, melatonin, and valerian were prepared on a daily basis and administered intraperitoneally (i.p.). Based on the previous studies caffeine-induced insomnia is dose-dependent with 7.5 mg/kg i.p. caffeine maintaining wakefulness for at least 2 h. Electrical activity of the brain was monitored for 90 minutes following the caffeine injection and spike frequency/spike amplitude analysis was performed via the Labchart 7.3.3 program. Ninety (90) minutes after the caffeine injection, animals were deeply anesthetized with 4% isofluorane (30% O2, remainder N2O). Brains were rapidly removed, frozen on dry ice and stored at −80° C. for further analysis.
(§2) Serum melatonin, serotonin, and dopamine was measured by ELISA kits. Brain levels of MDA was measured by HPLC. Brain activities of SOD, CAT and GPHx was measured using ELISA kits.

[2] = test system: brain tissue MDA, SOD, CAT, GPx; test: Brain oxidative stress markers (MDA by HPLC; SOD, CAT, GPx by ELISA kits); conditions: CM: caffeine then 2 mg/kg i.p.; vs C group
Procedure: as §1, §2

[3] = test system: GABAAR2, GABAB R1, GABAB R2, 5-HT1A; test: Western blot of brain GABAergic and serotonergic receptors; conditions: CM: caffeine then 2 mg/kg i.p.; vs C group
Procedure: as §1
(§3) Protein concentrations were determined using Western blot analysis. 50 μg of protein was electrophoresed on 4-15% Tris-Glycine polyacrylamide gels and transferred to Immobilon-P PVDF membranes, blocked for 1 h in 5% skim milk and incubated overnight at 4° C. with either GABAAR2, GABAB R1, GABAB-R2, 5H-T1A, GluA1, GluN1, GluN2 A, Bcl-2, Bax, and Caspase-3. Membranes were then incubated with horseradish peroxidase (HRP) conjugated IgG secondary antibody. Bands were quantified using Image software and normalized to actin as a loading control.

GluA1, GluN2A, GluN1 = test: Western blot of brain glutamate receptors; conditions: CM: caffeine then 2 mg/kg i.p.; vs C group
Procedure: as §1, §3

Bax, Bcl-2, Caspase-3 = test: Western blot of brain Bax, Bcl-2 and Caspase-3; conditions: CM: caffeine then 2 mg/kg i.p.; vs C group
Procedure: as §1, §3

**Q.** With `COc1ccc2[nH]cc(CCNC(C)=O)c2c1` [Melatonin] as the compound, how does the serum dopamine levels ([1]; vs C group) read?
**A.** significant increase

**Q.** And the serum serotonin levels ([1]; vs C group)?
**A.** significant increase

**Q.** What about the “melatonin levels in serum” value ([1]; vs all the other groups) of the same compound?
**A.** significantly higher

**Q.** What about the “brain CAT” value [2] of the same compound?
**A.** significant increase

**Q.** What about the “brain GPx” value [2] of the same compound?
**A.** significant increase

**Q.** And the “brain MDA levels” value [2]?
**A.** significant reduction

**Q.** And the “brain SOD” value [2]?
**A.** significant increase

**Q.** What about the “brain 5-HT1A levels” value [3] of the same compound?
**A.** significantly increased

**Q.** What about the “brain GABAB R1” value [3] of the same compound?
**A.** significant increase

**Q.** And the “brain GluA1 receptors” value (GluA1, GluN2A, GluN1)?
**A.** significant increase

**Q.** And the “brain GluN1 receptors” value (GluA1, GluN2A, GluN1)?
**A.** significant increase

**Q.** And the “brain GluN2A receptors” value (GluA1, GluN2A, GluN1)?
**A.** significant increase

**Q.** What about the “brain Bax” value (Bax, Bcl-2, Caspase-3) of the same compound?
**A.** significant increase

**Q.** And the “brain Bcl-2” value (Bax, Bcl-2, Caspase-3)?
**A.** significant decrease

**Q.** And the “brain Caspase-3” value (Bax, Bcl-2, Caspase-3)?
**A.** significant increase
